In ChEMBL document CHEMBL6087389, “Hydrazone-Functionalized trans-A2B-Corroles: Effective Synergy in Photodynamic Therapy of Lung Cancer” (J Med Chem, 2024):

What was measured:
[1] = system: A549; assay: Dark toxicity against human A549 cells assessed as reduction in metabolic activity at <1 uM incubated for 4 hrs by MTT assay; assay type: cell-based; conditions: a549, 4 h
[2] = Fluorescence property of the compound in DMSO assessed as fluorescence quantum yield by photoluminescence quantum yield spectrometer; assay type: physicochemical
[3] = Phototoxicity against human A549 cells assessed as reduction in cell viability preincubated for 24 hrs followed by 7.5 to 10 mW/cm^-2 red light irradiation and measured after 24 hrs by MTT assay; assay type: functional, cell-based; conditions: A549, light or radiation study
[4] = system: NCI-H1299; assay: Dark toxicity against human NCI-H1299 cells assessed as reduction in metabolic activity at <1 uM incubated for 4 hrs by MTT assay; assay type: cell-based; conditions: nci-h1299, 4 h
[5] = Fluorescence property of the compound in THF assessed as fluorescence quantum yield by photoluminescence quantum yield spectrometer; assay type: physicochemical
[6] = Induction of singlet oxygen generation in THF assessed as singlet oxygen quantum yield by comparative photoluminescence method; assay type: functional
[7] = Phototoxicity against human NCI-H1299 cells assessed as reduction in cell viability preincubated for 24 hrs followed by 7.5 to 10 mW/cm^-2 red light irradiation and measured after 24 hrs by MTT assay; assay type: functional, cell-based; conditions: NCI-H1299, light or radiation study
[8] = Fluorescence property of the compound in toluene assessed as fluorescence quantum yield by photoluminescence quantum yield spectrometer; assay type: physicochemical
[9] = system: NCI-H1299; assay: Dark toxicity against human NCI-H1299 cells assessed as reduction in metabolic activity at 10 uM incubated for 4 hrs by MTT assay; assay type: cell-based; set-up: scale not given: the % may be the effect or the level left; conditions: nci-h1299, 4 h
[10] = system: A549; assay: Dark toxicity against human A549 cells assessed as reduction in metabolic activity at 10 uM incubated for 4 hrs by MTT assay; assay type: cell-based; set-up: scale not given: the % may be the effect or the level left; conditions: a549, 4 h
[11] = system: A549; assay: Dark toxicity against human A549 cells assessed as reduction in metabolic activity at 5 uM incubated for 4 hrs by MTT assay relative to control; assay type: cell-based; set-up: scale not given: the % may be the effect or the level left; conditions: a549, 4 h
[12] = system: A549; assay: Photocytotoxicity in human A549 cells assessed as cell viability at 10 uM measured after 24 hrs by MTT assay relative to control; assay type: functional; conditions: read-out: Activity

Row | SMILES | Activity [1] | Activity [2] | IC50 [3] | Activity [4] | Activity [5] | Activity [6] | IC50 [7] | Activity [8] | Activity [9] | Activity [10] | Activity [11] | viability at 10 µM [12]
1 | C/C(=N/NC(=O)OC(C)(C)C)c1c2nc(c(-c3cccc(O)c3)c3ccc([nH]3)c3ccc([nH]3)c(-c3cccc(O)c3)c3ccc1[nH]3)C=C2 | Non-toxic | 0.283 | 140 nM | Non-toxic | 0.133 | 0.26 | 67.5 nM | – | – | – | – | –
2 | CC(C)(C)OC(=O)N/N=C(/c1ccccc1)c1c2nc(c(-c3ccc(O)cc3)c3ccc([nH]3)c3ccc([nH]3)c(-c3ccc(O)cc3)c3ccc1[nH]3)C=C2 | Non-toxic | 0.234 | 89.3 nM | Non-toxic | 0.118 | 0.21 | 56.1 nM | – | – | – | – | –
3 | CC(C)(C)OC(=O)N/N=C(\c1ccccc1)c1c2nc(c(-c3ccc([N+](=O)[O-])cc3)c3ccc([nH]3)c3ccc([nH]3)c(-c3ccc([N+](=O)[O-])cc3)c3ccc1[nH]3)C=C2 | Non-toxic | – | 2110 nM | Non-toxic | – | 0.31 | 2360 nM | 0.197 | 51.15% | 48.37% | – | –
4 | C/C(=N\NS(=O)(=O)c1ccc(C)cc1)c1c2nc(c(-c3ccc(O)cc3)c3ccc([nH]3)c3ccc([nH]3)c(-c3ccc(O)cc3)c3ccc1[nH]3)C=C2 | Non-toxic | 0.212 | 892 nM | Non-toxic | 0.073 | 0.19 | 277 nM | – | – | 13.93% | 17.95% | –
5 | CC(C)(C)OC(=O)N/N=C(\c1ccccc1)c1c2nc(c(-c3ccccc3)c3ccc([nH]3)c3ccc([nH]3)c(-c3ccccc3)c3ccc1[nH]3)C=C2 | Non-toxic | 0.298 | 948 nM | Non-toxic | 0.159 | 0.46 | 538 nM | – | Non-toxic | – | – | –
6 | C/C(=N\Nc1ccc([N+](=O)[O-])cc1[N+](=O)[O-])c1c2nc(c(-c3ccccc3)c3ccc([nH]3)c3ccc([nH]3)c(-c3ccccc3)c3ccc1[nH]3)C=C2 | Non-toxic | – | – | Non-toxic | – | – | – | 0.002 | – | – | – | –
7 | C/C(=N/NC(=O)OC(C)(C)C)c1c2nc(c(-c3ccc(O)cc3)c3ccc([nH]3)c3ccc([nH]3)c(-c3ccc(O)cc3)c3ccc1[nH]3)C=C2 | Non-toxic | 0.249 | 413 nM | Non-toxic | 0.114 | 0.18 | 145 nM | – | – | – | – | –
8 | C/C(=N\NC(=O)c1ccccc1)c1c2nc(c(-c3ccccc3)c3ccc([nH]3)c3ccc([nH]3)c(-c3ccccc3)c3ccc1[nH]3)C=C2 | Non-toxic | 0.211 | 803 nM | Non-toxic | 0.111 | 0.11 | 164 nM | – | Non-toxic | Non-toxic | – | –
9 | C/C(=N/NC(=O)OC(C)(C)C)c1c2nc(c(-c3ccc([N+](=O)[O-])cc3)c3ccc([nH]3)c3ccc([nH]3)c(-c3ccc([N+](=O)[O-])cc3)c3ccc1[nH]3)C=C2 | Non-toxic | – | 748 nM | Non-toxic | – | 0.22 | 310 nM | 0.195 | 53.41% | 49.14% | – | –
10 | C1=Cc2nc1c(-c1ccccc1)c1ccc([nH]1)c(-c1ccccc1)c1ccc([nH]1)c1ccc([nH]1)c2-c1ccccc1 | – | 0.22 | – | – | 0.12 | 0.22 | – | – | – | – | – | 93%
11 | Oc1cccc(-c2c3nc(c(-c4cccc(O)c4)c4ccc([nH]4)c(-c4cccc(O)c4)c4nc(c(-c5cccc(O)c5)c5ccc2[nH]5)CC4)C=C3)c1 [TEMOPORFIN] | – | – | 84.1 nM | – | – | – | – | – | – | – | – | –
